From patent US7939554B2, “Protein phosphatase inhibitors” (The Cleveland Clinic Foundation, priority 2006, dated 2011)

Tested on: B16 melanoma cells
Experiment: B16 melanoma cell growth in culture (MTT assay)
Type: cell-based, mouse
Settings: doses up to 10 μg/ml, 5 days
Procedure: Data represent mean±SD of triplicate samples. […] Tumor volumes were recorded as indicated. C, Athymic nude mice bearing 4-day-established B16 tumors were subjected to differential treatments as in B. Tumor volumes were recorded as indicated.
L5, L6 and L6 analogs (Chembridge), mouse IFNγ ELISPOT Kit (R & D System) and antibody against pLck-pY394 or pERK1/2 (Cell Signaling) were purchased from commercial sources. Human Jurkat T cell line and murine B16 melanoma cell line (ATCC) and other cancer cell lines were maintained in […] culture medium supplemented with 10% fetal calf serum (FCS). The effects of chemical compounds on cancer cell growth in culture were quantified by MTT assays following our established procedures.

Which “direct toxicity against B16 cells in culture” value does the source give for `O=C1C=CC(=O)C(c2cc(Cl)ccc2Cl)=C1` [L5] here?
The value was “little direct toxicity”.
